These molecules were tested against Axl phosphorylation in 293MSR-AxlWT6 cells (Homo sapiens (Human), UniProt P30530) (assay: Cellular Axl phosphorylation ELISA assay (Gas6-stimulated 293MSR-AxlWT6 cells)). Conditions: Table 4A, read-out: CELL AXL IC50.
Type: cell-based
Protocol: Cellular Axl Phosphorylation ELISA Assay
After 6-7 hrs in tissue culture incubator at 37° C. 5% CO2, medium was removed, serum-free medium was added (with 0.04% bovine serum albumin) and plates were returned to incubator where they remained overnight. […] Media was then removed and lysis buffer was added to wells and shaken at 4° C. for 30 min to generate protein lysates. Subsequently, phosphorylation of Axl was assessed by a sandwich ELISA method using a DuoSet IC Human Phospho-Axl ELISA assay kit (R&D System), an immobilized mouse anti-human Axl antibody and an anti-phospho-tyrosine-HRP antibody as a detection antibody. Antibody-coated plates were (a) incubated in presence of protein lysates at room temperature for 2 hrs, (b) washed seven times in 0.1% Tween 20 in PBS, (c) incubated with secondary antibody (a horseradish peroxidase-conjugated […]) for 2 hrs, (d) washed seven times again, (e) TMB peroxidase substrate (Bio-Rad) was added to initiate a colorimetric reaction and stopped by adding 0.2 N H2SO4, and (f) measured at OD 450 nm using a spectrophotometer. IC50 values were calculated by concentration-response curve fitting using a four-parameter analytic method and reported in μM.
For Table 4B, IC50 values were calculated by concentration-response curve fitting using a four-parameter analytic method and reported in nM.

Chain of Axl phosphorylation in 293MSR-AxlWT6 cells (P30530 26-894): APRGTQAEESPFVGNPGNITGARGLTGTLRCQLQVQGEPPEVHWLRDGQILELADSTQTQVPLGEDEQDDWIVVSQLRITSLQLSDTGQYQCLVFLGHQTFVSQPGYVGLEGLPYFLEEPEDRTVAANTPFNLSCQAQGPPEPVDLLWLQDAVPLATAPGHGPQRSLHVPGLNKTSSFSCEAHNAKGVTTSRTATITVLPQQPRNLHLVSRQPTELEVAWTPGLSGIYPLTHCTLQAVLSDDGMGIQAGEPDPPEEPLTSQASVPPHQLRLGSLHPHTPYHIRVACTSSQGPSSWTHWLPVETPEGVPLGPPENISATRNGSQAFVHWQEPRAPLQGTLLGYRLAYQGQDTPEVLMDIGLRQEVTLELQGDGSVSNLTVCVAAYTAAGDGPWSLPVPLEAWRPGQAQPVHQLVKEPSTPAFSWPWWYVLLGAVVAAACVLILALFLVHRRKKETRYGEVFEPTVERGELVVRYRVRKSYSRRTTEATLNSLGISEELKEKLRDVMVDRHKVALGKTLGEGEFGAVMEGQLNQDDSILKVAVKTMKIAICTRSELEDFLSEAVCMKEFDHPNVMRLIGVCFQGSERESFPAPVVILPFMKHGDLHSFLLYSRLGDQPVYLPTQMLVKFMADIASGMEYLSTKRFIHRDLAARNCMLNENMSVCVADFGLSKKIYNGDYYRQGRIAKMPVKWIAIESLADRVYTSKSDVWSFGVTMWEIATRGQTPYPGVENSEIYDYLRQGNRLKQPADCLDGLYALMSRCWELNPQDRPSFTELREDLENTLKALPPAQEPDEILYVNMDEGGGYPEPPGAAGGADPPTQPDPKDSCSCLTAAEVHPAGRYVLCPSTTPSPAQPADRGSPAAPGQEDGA

For `COC[C@@H](C)Oc1nc(C(=O)NC23CC(C2)C3)nc(N2CCC(c3ccc(N)c(C(N)=O)n3)CC2)n1` [Example 54, 4-[4-(5-amino-6-carbamoylpyridin-2-yl)piperidin-1-yl]-N-(bicyclo[1.1.1]pent-1-yl)-6-{[(2R)-1-methoxypropan-2-yl]oxy}-1,3,5-triazine-2-carboxamide], which IC50 is on record?
The IC50 was 5.27 nM.

How did the IC50 turn out when `C[C@@H](O)COc1nc(C(=O)NC23CC(C2)C3)cc(N2CCC(c3n[nH]c4ncccc34)CC2)n1` [Example 70, N-(bicyclo[1.1.1]pent-1-yl)-2-[(2R)-2-hydroxypropoxy]-6-[4-(1H-pyrazolo[3,4-b]pyridin-3-yl)piperidin-1-yl]pyrimidine-4-carboxamide] was run?
Its IC50 is 40.8 nM.

With `N#C[C@@H]1C[C@@H]1COc1nc(C(=O)NCC2CC2)nc(N2CCC(c3ccc(N)c(C(N)=O)n3)CC2)n1` [Example 87, 4-[4-(5-amino-6-carbamoylpyridin-2-yl)piperidin-1-yl]-6-{[(1S,2R)-2-cyanocyclopropyl]methoxy}-N-(cyclopropyl-methyl)-1,3,5-triazine-2-carboxamide] as the molecule, how does the IC50 read?
Its IC50 is 66 nM.

`C[C@H](CO)NC(=O)c1cc(N2CCC(c3c[nH]c4ncccc34)CC2)nc(OC[C@H]2CCO2)n1` [Example 50, N-[(2R)-1-hydroxypropan-2-yl]-2-[(2R)-oxetan-2-ylmethoxy]-6-[4-(1H-pyrrolo[2,3-b]pyridin-3-yl)piperidin-1-yl]pyrimidine-4-carboxamide] was tested. Which IC50 did it give?
Its IC50 is 15.5 nM.

Which IC50 does the source give for `COCCNC(=O)c1cc(N2CCC(c3ccc(N)c(C(N)=O)n3)CC2)nc(O[C@H](C)COC)n1` [Example 7, 6-[4-(5-amino-6-carbamoylpyridin-2-yl)piperidin-1-yl]-N-(2-methoxyethyl)-2-{[(2R)-1-methoxypropan-2-yl]oxy}pyrimidine-4-carboxamide] here?
Its IC50 is 14.9 nM.

How did the IC50 turn out when `N#C[C@@H]1C[C@@H]1COc1nc(C(=O)NC23CC(C2)C3)cc(N2CCC(c3n[nH]c4ncccc34)C(F)C2)n1` (single isomer, unassigned) [Example 74] was run?
The IC50 was 15.5 nM.

For `COc1ccnc2[nH]cc(C3CCN(c4nc(OC[C@H]5C[C@H]5C#N)nc(C(=O)NC5(C)CCC5)n4)CC3)c12` [Example 378, 4-{[(1S,2R)-2-cyanocyclopropyl]methoxy}-6-[4-(4-methoxy-1H-pyrrolo[2,3-b]pyridin-3-yl)piperidin-1-yl]-N-(1-methylcyclobutyl)-1,3,5-triazine-2-carboxamide], which IC50 is on record?
The IC50 was 0.24 nM.

Which IC50 does the source give for `CN(C)CCOc1ccc(C(N)=O)nc1C1CCN(c2cc(C(=O)NC3CCC3)nc(OC[C@@H]3C[C@@H]3C#N)n2)CC1` [Example 37, 6-(4-{6-carbamoyl-3-[2-(dimethylamino)ethoxy]pyridin-2-yl}piperidin-1-yl)-2-{[(1R,2S)-2-cyanocyclopropyl]methoxy}-N-cyclobutyl-pyrimidine-4-carboxamide] here?
The IC50 was 242 nM.

With `COc1ccnc2[nH]cc(C3CCN(c4cc(C(=O)N[C@H](C)CO)nc(OC[C@H]5C[C@H]5C#N)n4)CC3)c12` [Example 377, 2-{[(1S,2R)-2-cyanocyclopropyl]methoxy}-N-[(2R)-1-hydroxypropan-2-yl]-6-[4-(4-methoxy-1H-pyrrolo[2,3-b]pyridin-3-yl)piperidin-1-yl]pyrimidine-4-carboxamide] as the molecule, how does the IC50 read?
Its IC50 is 0.4 nM.

How did the IC50 turn out when `COC[C@@H](C)Oc1nc(C(=O)NCC2CC2)nc(N2CCC(c3ccc(N)c(C(N)=O)n3)CC2)n1` [Example 58, 4-[4-(5-amino-6-carbamoylpyridin-2-yl)piperidin-1-yl]-N-(cyclo-propylmethyl)-6-{[(2R)-1-methoxypropan-2-yl]oxy}-1,3,5-triazine-2-carboxamide] was run?
The IC50 was 23.8 nM.

For `COC[C@@H](C)Oc1nc(C(=O)NC2CCC2)cc(N2CCC(c3cccc(C(N)=O)n3)CC2)n1` [Example 11, 6-[4-(6-carbamoylpyridin-2-yl)piperidin-1-yl]-N-cyclobutyl-2-{[(2R)-1-methoxypropan-2-yl]oxy}pyrimidine-4-carboxamide], which IC50 is on record?
The IC50 was 10.2 nM.

`COC[C@@H](C)Oc1nc(C(=O)NC2CCC2)nc(N2CCC(c3ccc(N)c(C(N)=O)n3)CC2)n1` [Example 40, 4-[4-(5-amino-6-carbamoylpyridin-2-yl)piperidin-1-yl]-N-cyclobutyl-6-{[(2R)-1-methoxypropan-2-yl]oxy}-1,3,5-triazine-2-carboxamide] was tested. Which IC50 did it give?
The IC50 was 5.77 nM.

With `C[C@@H](NC(=O)c1cc(N2CCC(c3cccc(C(N)=O)n3)CC2)nc(OCC2CC2(F)F)n1)C(C)(C)O` (stereo partly drawn) [Example 17, 6-[4-(6-carbamoylpyridin-2-yl)piperidin-1-yl]-2-[(2,2-difluoro-cyclopropyl)methoxy]-N-[(2R)-3-hydroxy-3-methylbutan-2-yl]pyrimidine-4-carboxamide] as the molecule, how does the IC50 read?
Its IC50 is 39.9 nM.

`C[C@H](CO)NC(=O)c1cc(N2CCC(c3n[nH]c4ncccc34)CC2)nc(OC[C@H]2C[C@H]2C#N)n1` [Example 43, 2-{[(1S,2R)-2-cyanocyclopropyl]methoxy}-N-[(2R)-1-hydroxypropan-2-yl]-6-[4-(1H-pyrazolo[3,4-b]pyridin-3-yl)piperidin-1-yl]pyrimidine-4-carboxamide] was tested. Which IC50 did it give?
Its IC50 is 131 nM.

For `C[C@H](CO)NC(=O)c1cc(N2CCC(c3n[nH]c4ncccc34)CC2)nc(OC[C@H]2CCOC2)n1` [Example 383, N-[(2R)-1-hydroxypropan-2-yl]-6-[4-(1H-pyrazolo[3,4-b]pyridin-3-yl)piperidin-1-yl]-2-[(3S)-tetrahydrofuran-3-ylmethoxy]pyrimidine-4-carboxamide], which IC50 is on record?
Its IC50 is 120 nM.

`CCNC(=O)c1cc(N2CCC(COc3cc(-c4cn(C)cn4)cnc3N)CC2)nc(O[C@H](C)COC)n1` [Example 68, 6-[4-({[2-amino-5-(1-methyl-1H-imidazol-4-yl)pyridin-3-yl]oxy}methyl)piperidin-1-yl]-N-ethyl-2-{[(2R)-1-methoxypropan-2-yl]oxy}pyrimidine-4-carboxamide] was tested. Which IC50 did it give?
The IC50 was 2.94 nM.

`CCNC(=O)c1cc(N2CCC(COc3cc(-c4cnn(C)c4)cnc3N)CC2)nc(OCC(C)O)n1` (centres unmarked) [Example 45, 6-[4-({[2-amino-5-(1-methyl-1H-pyrazol-4-yl)pyridin-3-yl]oxy}methyl)piperidin-1-yl]-N-ethyl-2-(2-hydroxypropoxy) pyrimidine-4-carboxamide] was tested. Which IC50 did it give?
Its IC50 is 235 nM.

`C[C@@H](NC(=O)c1cc(N2CCC(c3ccc(N)c(C(N)=O)n3)CC2)nc(OCC2CC2(F)F)n1)C(C)(C)O` (single isomer, unassigned) [Example 15] was tested. Which IC50 did it give?
The IC50 was 8.36 nM.

With `CCNC(=O)c1cc(N2CCC(COc3cc(-c4cnn(C)c4)cnc3N)CC2)nc(OC[C@H]2C[C@H]2C#N)n1` [Example 25, 6-[4-({[2-amino-5-(1-methyl-1H-pyrazol-4-yl)pyridin-3-yl]oxy}methyl)piperidin-1-yl]-2-{[(1S,2R)-2-cyanocyclopropyl]methoxy}-N-ethylpyrimidine-4-carboxamide] as the molecule, how does the IC50 read?
The IC50 was 1.78 nM.

`N#CC1(COc2nc(C(=O)NCC(F)(F)F)nc(N3CCC(COc4cccnc4N)CC3)n2)CC1` [Example 91, 4-(4-{[(2-aminopyridin-3-yl)oxy]methyl}piperidin-1-yl)-6-[(1-cyanocyclopropyl)methoxy]-N-(2,2,2-trifluoroethyl)-1,3,5-triazine-2-carboxamide] was tested. Which IC50 did it give?
Its IC50 is 64.9 nM.

For `N#C[C@@H]1C[C@@H]1COc1nc(C(=O)NC23CC(C2)C3)cc(N2CC[C@H](c3n[nH]c4ncccc34)[C@H](F)C2)n1` (single isomer, unassigned) [Example 79], which IC50 is on record?
Its IC50 is 56.4 nM.

For `CCNC(=O)c1cc(N2CCC(COc3cc(-c4cnn(CCO)c4)cnc3N)CC2)nc(O[C@H](C)COC)n1` [Example 86, 6-{4-[({2-amino-5-[1-(2-hydroxyethyl)-1H-pyrazol-4-yl]pyridin-3-yl}oxy)methyl]piperidin-1-yl}-N-ethyl-2-{[(2R)-1-methoxypropan-2-yl]oxy} pyrimidine-4-carboxamide], which IC50 is on record?
The IC50 was 16.7 nM.

Which IC50 does the source give for `COc1ccnc2[nH]cc(C3CCN(c4nc(OC[C@H]5C[C@H]5C#N)nc(C(=O)N[C@@H](C)C(F)(F)F)n4)CC3)c12` [Example 379, 4-{[(1S,2R)-2-cyanocyclopropyl]methoxy}-6-[4-(4-methoxy-1H-pyrrolo[2,3-b]pyridin-3-yl)piperidin-1-yl]-N-[(2S)-1,1,1-trifluoropropan-2-yl]-1,3,5-triazine-2-carboxamide] here?
The IC50 was 0.2 nM.

`CS(=O)(=O)COc1ccnc2[nH]nc(C3CCN(c4cc(C(=O)NC56CC(C5)C6)nc(OC[C@H]5C[C@H]5C#N)n4)CC3)c12` [Example 67, N-(bicyclo[1.1.1]pent-1-yl)-2-{[(1S,2R)-2-cyanocyclopropyl]methoxy}-6-(4-{4-[(methylsulfonyl)methoxy]-1H-pyrazolo[3,4-b]pyridin-3-yl}piperidin-1-yl)pyrimidine-4-carboxamide] was tested. Which IC50 did it give?
The IC50 was 18.7 nM.

For `C[C@H](CO)NC(=O)c1cc(N2CCC(c3n[nH]c4ncccc34)CC2)nc(OCC2CC(F)(F)C2)n1` [Example 47, 2-[(3,3-difluoro-cyclobutyl)methoxy]-N-[(2R)-1-hydroxypropan-2-yl]-6-[4-(1H-pyrazolo[3,4-b]pyridin-3-yl)piperidin-1-yl]pyrimidine-4-carboxamide], which IC50 is on record?
Its IC50 is 3.84 nM.

For `COC[C@@H](C)Oc1nc(C(=O)NCC(C)(C)O)cc(N2CCC(c3ccc(N)c(C(N)=O)n3)CC2)n1` [Example 8, 6-[4-(5-amino-6-carbamoylpyridin-2-yl)piperidin-1-yl]-N-(2-hydroxy-2-methylpropyl)-2-{[(2R)-1-methoxypropan-2-yl]oxy}pyrimidine-4-carboxamide], which IC50 is on record?
Its IC50 is 77.9 nM.

Reference: patent publication US9593097B2, “Axl inhibitors” (Pfizer Inc., priority 2014, dated 2017)
